According to patent publication US12516038B2, “Inhibitors of antigen presentation by HLA-DR” (Janssen Pharmaceutica NV, priority 2020, dated 2026):

How the values were obtained:
HLA-DRB1*0401 = HLA-DRB1*0401 (Homo sapiens (Human), UniProt P01903+P01911, A100K/A169T/DEL228-266/F76Y/I96L/K127E/L162R/M171V/N62H/P40V/Q125Y/R42H/S133A/S149N/S66Y/V115G/V209L/W38E); assay: HLA-DR4 HTRF assay; type: binding; conditions: inhibition of loading of Alexa Fluor 647-labeled Cit-CII peptide onto HLA-DR4 (CLIP cleaved)
Outline: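 HLA-DRB1*04:01 construct (α/β fused to human Fc, CLIP pre-cleaved by HRV3C overnight at 4° C) at 3 nM was preincubated 45 min with compound and 1 nM anti-Fc-Tb donor, then 40 nM Alexa647-Cit-CII1236-1249 peptide added. After 90 min at 37° C, the 665/620 nm HTRF ratio gave % inhibition; IC50 by nonlinear regression.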

[1] = test system: HLA-DR4 restricted mouse T cell hybridoma line (DR4.CII.36.8) with HLA-DRB1*04:01-expressing Boleth cells; assay: HLA-DR4-restricted peptide-specific T cell-based assay (hybridoma assay); conditions: Mus musculus, T-cell, 6 h, inhibition of IL-2 production, CII259-273 peptide presented by Boleth cells
Outline: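 IC50 values derive from 4-parameter logistic fits of IL-2 AlphaLISA signal over 8-point duplicate titrations. Compound and HLA-DRB1*04:01 Boleth APCs were preincubated 1 h, 37° C., before adding CII259-273-restricted DR4.CII.36.8 hybridoma cells with peptide for 6 h at 37° C., in DMEM/1% FCS.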

[2] = test system: human peripheral blood CD4+ helper T cells; assay: Pan-CD4+ T cell activation (off-target assay); type: cell-based; conditions: Homo sapiens, T-cell, 24 h, anti-CD3/anti-CD28 stimulation, IL-2 production by ELISA
From the text: The counter-screening was made through an HLA-DR-independent assay (Pan-CD4+ T cell activation assay), i.e., TCR-stimulated pan-T cell activation assay, and consists of activating T cell directly with agonistic antibody targeting the T cell receptor. The lack of inhibition in the counter-screening assay reflects that the inhibition of T cell activation in the HLA-DR4 restricted peptide-specific T cell based assay with the small molecule inhibitors is due to impaired antigen presentation on HLA-DR to the T cell and not due to a direct inhibition of the T cell function by an off-target mechanism (i.e., independently of targeting HLA-DR).
Pan-CD4+ T Cell Activation
Compounds were tested using a pan-T cell activation assay. In this assay, anti-human CD3 antibody (BD Pharmingen #55336) pre-coated at 1 μg/mL to a 96-well assay plate and 1 μg/ml soluble anti-human CD28 (EBioscience #16-0289-85) antibody were used for activating human peripheral blood CD4+ helper T cells (no HLA-DR-expressing APC were present in this assay format), in the presence of compounds (or vehicle control) for 24 hrs. IL-2 production was measured in the culture supernatant by ELISA (Human IL-2 Duo Set ELISA #DY202 from R&D Systems).

Compound	IC50 (HLA-DRB1*0401) [µM]	IC50 [1] [µM]	IC50 [2] [µM]
NC(=O)c1cccc([C@@H](Oc2ccc3c(c2)OCCC3=O)c2ccncc2)c1 (single isomer, unassigned) [Example 9a, (*R)-3-(((4-oxochroman-7-yl)oxy)(pyridin-4-yl)methyl)benzamide]	0.92	6.3	4.7
NC(=O)c1cccc([C@H](Oc2ccc3c(c2)OCCC3=O)c2ccncc2)c1 (single isomer, unassigned) [Example 9b, (*S)-3-(((4-oxochroman-7-yl)oxy)(pyridin-4-yl)methyl)benzamide]	0.98	11	4.7
N#Cc1ccc([C@@H](Oc2ccc3c(c2)OCCC3=O)c2ccncc2)cc1 (single isomer, unassigned) [Example 10a, (*R)-4-(((4-oxochroman-7-yl)oxy)(pyridin-4-yl)methyl)benzonitrile]	0.95	4.9	> 15
NC(=O)c1ccc([C@@H](Oc2ccc3c(c2)OCCC3=O)c2ccncc2)cc1 (single isomer, unassigned) [Example 11a, (*R)-4-(((4-oxochroman-7-yl)oxy)(pyridin-4-yl)methyl)benzamide]	0.72	0.46	> 15
NC(=O)c1ccc([C@H](Oc2ccc3c(c2)OCCC3=O)c2ccncc2)cc1 (single isomer, unassigned) [Example 11b, (*S)-4-(((4-oxochroman-7-yl)oxy)(pyridin-4-yl)methyl)benzamide]	0.95	4.7	> 15
COc1ccc([C@@H](Oc2ccc3c(c2)OCCC3=O)c2ccncc2)cc1 (single isomer, unassigned) [Example 12a, (*R)-7-((4-Methoxyphenyl)(pyridin-4-yl)methoxy)chroman-4-one]	2	2.6	9.9
COc1ccc([C@H](Oc2ccc3c(c2)OCCC3=O)c2ccncc2)cc1 (single isomer, unassigned) [Example 12b, (*S)-7-((4-Methoxyphenyl)(pyridin-4-yl)methoxy)chroman-4-one]	1.7	2.9	> 15
COc1cccc([C@@H](Oc2ccc3c(c2)OCCC3=O)c2ccncc2)c1 (single isomer, unassigned) [Example 13b, (*S)-7-((3-methoxyphenyl)(pyridin-4-yl)methoxy)chroman-4-one]	1.4	4.7	> 15
COc1ccccc1[C@H](Oc1ccc2c(c1)OCCC2=O)c1ccncc1 (single isomer, unassigned) [Example 14a, (*R)-7-((2-Methoxyphenyl)(pyridin-4-yl)methoxy)chroman-4-one]	1.9	8.7	> 15
Cc1cc([C@H](Oc2ccc3c(c2)OCCC3=O)c2ccc(C(N)=O)cc2)ccn1 (single isomer, unassigned) [Example 15a, (*R)-4-((2-Methylpyridin-4-yl)((4-oxochroman-7-yl)oxy)methyl)benzamide]	0.44	0.61	> 15
COc1ccc(COc2ccc([C@@H](Oc3ccc4c(c3)OCCC4=O)c3ccncc3)cc2)cc1 (single isomer, unassigned) [Example 17a, (*R)-7-((4-((4-Methoxybenzyl)oxy)phenyl)(pyridin-4-yl)methoxy)chroman-4-one]	5.8	4.3	15
COc1ccc(COc2ccc([C@H](Oc3ccc4c(c3)OCCC4=O)c3ccncc3)cc2)cc1 (single isomer, unassigned) [Example 17b, (*S)-7-((4-((4-Methoxybenzyl)oxy)phenyl)(pyridin-4-yl)methoxy)chroman-4-one]	4.9	7.7	4.8
NC(=O)c1ccc([C@H](Oc2ccc3c(c2)OCCC3=O)c2ccnc(C(F)(F)F)c2)cc1 (single isomer, unassigned) [Example 18b, (*S)-4-(((4-oxochroman-7-yl)oxy)(2-(trifluoromethyl)pyridin-4-yl)methyl)benzamide]	0.95	12	9.9
NC(=O)c1ccc([C@@H](Oc2ccc3c(c2)OCCC3=O)c2ccncc2C(F)(F)F)cc1 (single isomer, unassigned) [Example 19a, (*R)-4-(((4-oxochroman-7-yl)oxy)(3-(trifluoromethyl)pyridin-4-yl)methyl)benzamide]	0.82	3.6	1.8
NC(=O)c1ccc([C@H](Oc2ccc3c(c2)OCCC3=O)c2ccncc2C(F)(F)F)cc1 (single isomer, unassigned) [Example 19b, (*S)-4-(((4-oxochroman-7-yl)oxy)(3-(trifluoromethyl)pyridin-4-yl)methyl)benzamide]	1.2	7.6	4.7
NC(=O)c1ccc([C@@H](Oc2ccc3c(c2)OCCC3=O)c2ccnc3ccccc23)cc1 (single isomer, unassigned) [Example 22a, (*R)-4-(((4-oxochroman-7-yl)oxy)(quinolin-4-yl)methyl)benzamide]	1.3	1.9	4.7
NC(=O)c1ccc([C@H](Oc2ccc3c(c2)OCCC3=O)c2ccnc3ccccc23)cc1 (single isomer, unassigned) [Example 22b, (*S)-4-(((4-oxochroman-7-yl)oxy)(quinolin-4-yl)methyl)benzamide]	1.2	2.2	15
COc1cnccc1[C@@H](Oc1ccc2c(c1)OCCC2=O)c1ccc(C(N)=O)cc1 (single isomer, unassigned) [Example 23b, (*S)-4-((3-methoxypyridin-4-yl)((4-oxochroman-7-yl)oxy)methyl)benzamide]	0.68	5	> 15
COc1cc([C@H](Oc2ccc3c(c2)OCCC3=O)c2ccc(C(N)=O)cc2)ccn1 (single isomer, unassigned) [Example 24a, (*R)-4-((2-methoxypyridin-4-yl)((4-oxochroman-7-yl)oxy)methyl)benzamide]	1.4	5.1	> 15
COc1cc([C@@H](Oc2ccc3c(c2)OCCC3=O)c2ccc(C(N)=O)cc2)ccn1 (single isomer, unassigned) [Example 24b, (*S)-4-((2-methoxypyridin-4-yl)((4-oxochroman-7-yl)oxy)methyl)benzamide]	1.2	2.7	4.7
NC(=O)c1ccc([C@H](Oc2ccc3c(c2)OCCC3=O)c2ccncc2-c2ccccc2)cc1 (single isomer, unassigned) [Example 25b, (*S)-4-(((4-oxochroman-7-yl)oxy)(3-phenylpyridin-4-yl)methyl)benzamide]	0.49	4.5	3.2
NC(=O)c1ccc([C@@H](Oc2ccc3c(c2)OCCC3=O)c2ccnc(-c3ccccc3)c2)cc1 (single isomer, unassigned) [Example 26a, (*R)-4-(((4-oxochroman-7-yl)oxy)(2-phenylpyridin-4-yl)methyl)benzamide]	64	1.1	> 15
NC(=O)c1ccc([C@H](Oc2ccc3c(c2)OCCC3=O)c2ccnc(-c3ccccc3)c2)cc1 (single isomer, unassigned) [Example 26b, (*S)-4-(((4-oxochroman-7-yl)oxy)(2-phenylpyridin-4-yl)methyl)benzamide]	88	1.6	15
NC(=O)c1ccc([C@H](Oc2ccc3c(c2)OCCC3=O)c2ccnc(N)c2)cc1 (single isomer, unassigned) [Example 28b, (*S)-4-((2-aminopyridin-4-yl)((4-oxochroman-7-yl)oxy)methyl)benzamide]	1.7	3.5	> 15
NC(=O)c1ccc([C@H](Oc2ccc3c(c2)OCCC3=O)c2ccccc2)cc1 (single isomer, unassigned) [Example 29a, (*R)-4-(((4-oxochroman-7-yl)oxy)(phenyl)methyl)benzamide]	1.1	2.3	> 15
